Data: BindingDB's records for doi:10.1021/jm5008853 (University of Ferrara, 2014)

Assay: Allosteric enhancer activity at human adenosine A1 receptor expressed in CHO cell membranes assessed as [3H]NECA affinity constant at 1 uM (Kd = 0.87 +/- 0.04 nM)

Kd: 0.46 nM
Structure (SMILES): CC(C)(C)Cc1c(C#Cc2ccccc2)sc(N)c1C(=O)c1ccc(Cl)cc1
